# Measured values reported in patent US20240218022A1, “ANTI-VISTA MACROCYCLIC PEPTIDES AND COMPOSITIONS” (BRISTOL-MYERS SQUIBB COMPANY, priority 2022, published 2024).
# pIC50: −log10 of the molar value. Where two headings read alike, the source gives them in different places. Starred links: 1 amine or outer side, 2 acyl side, 3 side chain; linkers in the order of their positions; H or OH if unused. Positions of bridges follow the written chain, without caps; N, C: chain ends. Non-standard residues stand in square brackets, D forms with d. Residues, ends and D or L forms follow the SMILES beside them. ξ: configuration not given here. Phe(3,4-(OMe)2) = COc1ccc(C[C@H](N)C(=O)O)cc1OC; Trp(1-Me) = Cn1cc(C[C@H](N)C(=O)O)c2ccccc21; Phe(2,4-F2) = N[C@@H](Cc1ccc(F)cc1F)C(=O)O; Phe(3-Me) = Cc1cccc(C[C@H](N)C(=O)O)c1; γGlu = O=C(O)[C@H](CCC(=O)[*:2])N[*:1]; 2Nal = N[C@@H](Cc1ccc2ccccc2c1)C(=O)O; βAsp = O=C(O)[C@H](CC(=O)[*:2])N[*:1]; Ahp(2) = CCCCC[C@H](N)C(=O)O; NMeNle = CCCC[C@H](NC)C(=O)O; Tle = CC(C)(C)[C@H](N)C(=O)O; NMeS = CN[C@@H](CO)C(=O)O; NHexGly = CCCCCCNCC(=O)O; Nle = CCCC[C@H](N)C(=O)O; Aun = NCCCCCCCCCCC(=O)O; AEEA = NCCOCCOCC(=O)O; ξS = NC(CO)C(=O)O
# Biological target: T1, mouse VISTA (mVISTA) (Mus musculus, UniProt Q9D659)
# T1 construct: expressed in transfected cells; host or cells: Human embryonic kidney 293T cells
# T1 sequence (Q9D659 33-308): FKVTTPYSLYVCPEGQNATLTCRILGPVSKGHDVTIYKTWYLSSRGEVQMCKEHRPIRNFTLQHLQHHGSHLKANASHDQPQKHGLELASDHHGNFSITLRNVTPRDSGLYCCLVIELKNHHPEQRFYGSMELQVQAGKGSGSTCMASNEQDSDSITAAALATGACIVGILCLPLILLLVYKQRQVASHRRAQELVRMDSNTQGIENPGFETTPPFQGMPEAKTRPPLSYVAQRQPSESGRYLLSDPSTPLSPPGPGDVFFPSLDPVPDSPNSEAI
# Test: Cell-Based Binding High-Content Assay For mVISTA (HC CBA mVISTA)
# Procedure, shortened: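 293T cells expressing mouse VISTA, with compounds added either after seeding ("no wash") or before seeding and then washed out after 1 h. Biotinylated peptide 2 nM for 30 min at room temperature, then detection with Alexa 647–streptavidin. After fixation with Hoechst stain, plates were high-content imaged; IC50 from four-parameter logistic fit.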
# [1] = the 20th table, scaffold drawing 23, read-out: HC CBA mVISTA IC50
# [2] = cell-based binding high-content assay, mVISTA, read-out: HC CBA miPrISTA IC50
smiles,measurement,setting,value
"CCCCCCN1CC(=O)N[C@@H](Cc2ccc(O)cc2)C(=O)N[C@@H](CCCCC)C(=O)N[C@@H](CC(N)=O)C(=O)N[C@@H](CCCNC(=N)N)C(=O)N(C)[C@@H](CCCC)C(=O)N[C@@H](CCCCC)C(=O)N2CCC[C@H]2C(=O)N[C@@H](C(C)C)C(=O)N[C@@H](CC(=O)O)C(=O)N[C@H](C(=O)NC(CO)C(=O)O)CSCC(=O)N[C@@H](Cc2ccc(F)cc2F)C(=O)N[C@@H](Cc2ccc(F)cc2F)C(=O)N[C@@H](CC(=O)O)C1=O (stereo partly shown) [compound 1218] ({CH2CO}-[Phe(2,4-F2)][Phe(2,4-F2)]D[NHexGly]Y[Ahp(2)]NR[NMeNle][Ahp(2)]PVDC[ξS]-OH; thioether N-14)",pIC50,read-out: HC CBA mVISTA IC50,7.63
CCCCCCN1CC(=O)N[C@@H](Cc2ccc(O)cc2)C(=O)N[C@@H](CCCC)C(=O)N[C@@H](CC(N)=O)C(=O)N[C@@H](CCCNC(=N)N)C(=O)N(C)[C@@H](CCCC)C(=O)N[C@@H](CCCCC)C(=O)N2CCC[C@H]2C(=O)N[C@@H](C(C)(C)C)C(=O)N[C@@H](CO)C(=O)N[C@H](C(=O)NCC(=O)NCCOCCOCC(=O)N[C@@H](CCC(=O)NCCOCCOCC(=O)NCCCCCCCCCCC(=O)O)C(=O)O)CSCC(=O)N[C@@H](Cc2ccccc2)C(=O)N[C@@H](Cc2cccc(C)c2)C(=O)N[C@@H](CC(=O)O)C1=O [compound 2330] ({CH2CO}-F[Phe(3-Me)]D[NHexGly]Y[Nle]NR[NMeNle][Ahp(2)]P[Tle]SCG[AEEA][γGlu][AEEA][Aun]-OH; thioether N-14),pIC50,"cell-based binding high-content assay, read-out: HC CBA mVISTA IC50",7.74
CCCCCCN1CC(=O)N[C@@H](Cc2ccc(O)cc2)C(=O)N[C@@H](CCCC)C(=O)N[C@@H](CC(N)=O)C(=O)N[C@@H](CCCNC(=N)N)C(=O)N(C)[C@@H](CCCC)C(=O)N[C@@H](CCCCC)C(=O)N2CCC[C@H]2C(=O)N[C@@H](C(C)(C)C)C(=O)N[C@@H](CO)C(=O)N[C@H](C(=O)N[C@@H](CC(=O)NCCOCCOCC(=O)NCCCCCCCCCCC(=O)O)C(=O)O)CSCC(=O)N[C@@H](Cc2cccc(C)c2)C(=O)N[C@@H](Cc2c[nH]c3ccccc23)C(=O)N[C@@H](CC(=O)O)C1=O [Example 2197] ({CH2CO}-[Phe(3-Me)]WD[NHexGly]Y[Nle]NR[NMeNle][Ahp(2)]P[Tle]SC[βAsp][AEEA][Aun]-OH; thioether N-14),pIC50,read-out: HC CBA mVISTA IC50,7.49
"CCCCCCN1CC(=O)N[C@@H](Cc2ccc(O)cc2)C(=O)N[C@@H](CCCC)C(=O)NCC(=O)N[C@@H](CCCNC(=N)N)C(=O)N[C@@H](CC(C)C)C(=O)N[C@@H](CCCCC)C(=O)N2CCC[C@H]2C(=O)N[C@@H](C(C)C)C(=O)N[C@@H](CC(=O)O)C(=O)N[C@H](C(=O)NCC(=O)O)CSCC(=O)N[C@@H](Cc2ccc(OC)c(OC)c2)C(=O)N[C@@H](Cc2ccc(O)cc2)C(=O)N[C@@H](CC(=O)O)C1=O [compound 1458] ({CH2CO}-[Phe(3,4-(OMe)2)]YD[NHexGly]Y[Nle]GRL[Ahp(2)]PVDCG-OH; thioether N-14)",pIC50,[1],7.47
CCCCCCN1CC(=O)N[C@@H](Cc2ccc(O)cc2)C(=O)N[C@@H](CCCC)C(=O)N[C@@H](CC(N)=O)C(=O)N[C@@H](CCCNC(=N)N)C(=O)N[C@@H](CC(C)C)C(=O)N[C@@H](CCCCC)C(=O)N2CCC[C@H]2C(=O)N[C@@H](C(C)C)C(=O)N[C@@H](CC(=O)O)C(=O)N[C@H](C(=O)NCC(=O)O)CSCC(=O)N[C@@H](Cc2ccccc2)C(=O)N[C@@H](Cc2cn(C)c3ccccc23)C(=O)N[C@@H](CC(=O)O)C1=O [compound 1455] ({CH2CO}-F[Trp(1-Me)]D[NHexGly]Y[Nle]NRL[Ahp(2)]PVDCG-OH; thioether N-14),pIC50,[1],8.46
CCCCCCN1CC(=O)N[C@@H](Cc2ccc(O)cc2)C(=O)N[C@@H](CC(C)C)C(=O)NCC(=O)N[C@@H](CCCNC(=N)N)C(=O)N(C)[C@@H](CCCC)C(=O)N[C@@H](CCCCC)C(=O)N2CCC[C@H]2C(=O)N[C@@H](C(C)C)C(=O)N[C@@H](CO)C(=O)N[C@H](C(=O)NCC(N)=O)CSCC(=O)N[C@@H](Cc2ccc3ccccc3c2)C(=O)N[C@@H](Cc2ccc(O)cc2)C(=O)N[C@@H](CC(=O)O)C1=O [Ex 1294] ({CH2CO}-[2Nal]YD[NHexGly]YLGR[NMeNle][Ahp(2)]PVSCG-NH2; thioether N-14),pIC50,"cell-based binding high-content assay, mVISTA, the 16th table, read-out: HC CBA mVISTA IC50",8.03
CCCCCCN1CC(=O)N[C@@H](Cc2ccc(O)cc2)C(=O)N[C@@H](CCCC)C(=O)N[C@@H](CC(N)=O)C(=O)N[C@@H](CCCNC(=N)N)C(=O)N(C)[C@@H](CCCC)C(=O)N[C@@H](CCCCC)C(=O)N2CCC[C@H]2C(=O)N[C@@H](C(C)C)C(=O)N[C@@H](CC(=O)O)C(=O)N[C@H](C(=O)NCC(=O)O)CSCC(=O)N[C@@H](Cc2ccccc2)C(=O)N[C@@H](Cc2ccc(O)cc2)C(=O)N[C@@H](CC(=O)O)C1=O [Example 1083] ({CH2CO}-FYD[NHexGly]Y[Nle]NR[NMeNle][Ahp(2)]PVDCG-OH; thioether N-14),pIC50,"293T cells expressing mouse VISTA, competition with biotinylated peptide (2 nM), read-out: CBA mVISTA IC50",7.41
CCCCCCN1CC(=O)N[C@@H](Cc2ccc(O)cc2)C(=O)N[C@@H](CCCC)C(=O)N[C@@H](CC(N)=O)C(=O)N[C@@H](CCCNC(=N)N)C(=O)N(C)[C@@H](CCCC)C(=O)N[C@@H](CCCCC)C(=O)N(C)[C@@H](CCCC)C(=O)N[C@@H](C(C)(C)C)C(=O)N[C@@H](CO)C(=O)N[C@H](C(=O)N[C@@H](CC(=O)NCCOCCOCC(=O)NCCCCCCCCCCC(=O)O)C(=O)O)CSCC(=O)N[C@@H](Cc2ccccc2)C(=O)N[C@@H](Cc2c[nH]c3ccccc23)C(=O)N[C@@H](CC(=O)O)C1=O [Example 2173] ({CH2CO}-FWD[NHexGly]Y[Nle]NR[NMeNle][Ahp(2)][NMeNle][Tle]SC[βAsp][AEEA][Aun]-OH; thioether N-14),pIC50,read-out: HC CBA mVISTA IC50,7.45
CCCCCCN1CC(=O)N[C@@H](Cc2ccc(O)cc2)C(=O)N[C@@H](CCCC)C(=O)N[C@@H](CC(N)=O)C(=O)N[C@@H](CCCNC(=N)N)C(=O)N(C)[C@@H](CCCC)C(=O)N[C@@H](CCCCC)C(=O)N2CCC[C@H]2C(=O)N[C@@H](C(C)C)C(=O)N[C@@H](CC(=O)O)C(=O)N[C@H](C(=O)NCCOCCOCC(=O)N[C@@H](CC(=O)O)C(=O)NCCOCCOCC(=O)NCCCCCCCCCCC(=O)O)CSCC(=O)N[C@@H](Cc2ccccc2)C(=O)N[C@@H](Cc2c[nH]c3ccccc23)C(=O)N[C@@H](CC(=O)O)C1=O [compound 2293] ({CH2CO}-FWD[NHexGly]Y[Nle]NR[NMeNle][Ahp(2)]PVDC[AEEA]D[AEEA][Aun]-OH; thioether N-14),pIC50,"cell-based binding high-content assay, read-out: HC CBA miPrISTA IC50",7.59
CCCCCCN1CC(=O)N[C@@H](Cc2ccc(O)cc2)C(=O)N[C@@H](CC(C)C)C(=O)N[C@@H](CC(N)=O)C(=O)N[C@@H](CCCNC(=N)N)C(=O)N(C)[C@@H](CO)C(=O)N[C@@H](CCCCC)C(=O)N2CCC[C@H]2C(=O)N[C@@H](C(C)(C)C)C(=O)N[C@@H](CC(=O)O)C(=O)N[C@H](C(=O)N[C@@H](CC(=O)NCCOCCOCC(=O)N[C@@H](CC(=O)O)C(=O)NCCOCCOCC(=O)NCCCCCCCCCCC(=O)O)C(=O)O)CSCC(=O)N[C@@H](Cc2ccccc2)C(=O)N[C@@H](Cc2cccc(C)c2)C(=O)N[C@@H](CC(=O)O)C1=O [compound 2069] ({CH2CO}-F[Phe(3-Me)]D[NHexGly]YLNR[NMeS][Ahp(2)]P[Tle]DC[βAsp][AEEA]D[AEEA][Aun]-OH; thioether N-14),pIC50,[2],7.35
CCCCCCN1CC(=O)N[C@@H](Cc2ccc(O)cc2)C(=O)N[C@@H](CC(C)C)C(=O)N[C@@H](CC(N)=O)C(=O)N[C@@H](CCCNC(=N)N)C(=O)N(C)[C@@H](CCCC)C(=O)N[C@@H](CCCCC)C(=O)N2CCC[C@H]2C(=O)N[C@@H](C(C)(C)C)C(=O)N[C@@H](CO)C(=O)N[C@H](C(=O)N[C@@H](CCCCN)C(=O)NCCOCCOCC(=O)N[C@@H](CC(=O)O)C(=O)NCCOCCOCC(=O)NCCCCCCCCCCC(=O)O)CSCC(=O)N[C@@H](Cc2ccccc2)C(=O)N[C@@H](Cc2ccc(O)cc2)C(=O)N[C@@H](CC(=O)O)C1=O [compound 2080] ({CH2CO}-FYD[NHexGly]YLNR[NMeNle][Ahp(2)]P[Tle]SCK[AEEA]D[AEEA][Aun]-OH; thioether N-14),pIC50,[2],7.55
CCCCCCN1CC(=O)N[C@@H](Cc2ccc(O)cc2)C(=O)N[C@@H](CCCC)C(=O)N[C@@H](CC(N)=O)C(=O)N[C@@H](CCCNC(=N)N)C(=O)N(C)[C@@H](CCCC)C(=O)N[C@@H](CCCCC)C(=O)N2CCC[C@H]2C(=O)N[C@@H](C(C)(C)C)C(=O)N[C@@H](CO)C(=O)N[C@H](C(=O)NCC(N)=O)CSCC(=O)N[C@@H](Cc2ccccc2)C(=O)N[C@@H](Cc2c[nH]c3ccccc23)C(=O)N[C@@H](CC(=O)O)C1=O [Example 1391] ({CH2CO}-FWD[NHexGly]Y[Nle]NR[NMeNle][Ahp(2)]P[Tle]SCG-NH2; thioether N-14),pIC50,read-out: HC CBA mVISTA IC50,7.44
CCCCCCN1CC(=O)N[C@@H](Cc2ccc(O)cc2)C(=O)N[C@@H](C(C)C)C(=O)NCC(=O)N[C@@H](CCCNC(=N)N)C(=O)N[C@@H](CC(C)C)C(=O)N[C@@H](CCCCC)C(=O)N2CCC[C@H]2C(=O)N[C@@H](C(C)C)C(=O)N[C@@H](CC(=O)O)C(=O)N[C@H](C(=O)N[C@@H](CO)C(=O)N[C@@H](CCCCN)C(=O)N[C@@H](CCC(N)=O)C(=O)O)CSCC(=O)N[C@@H](Cc2ccc3ccccc3c2)C(=O)N[C@@H](Cc2ccc(O)cc2)C(=O)N[C@@H](CC(=O)O)C1=O [Example 1165] ({CH2CO}-[2Nal]YD[NHexGly]YVGRL[Ahp(2)]PVDCSKQ-OH; thioether N-14),pIC50,"293T cells expressing mouse VISTA, competition with biotinylated peptide (2 nM), read-out: HC CBA mVISTA IC50",7.55
